Reference: US20140093884A1, “Process for Identifying Novel Anti-Inflammatory Molecules with Reduced Direct Transrepression of Genes Induced by Glucocorticoids” (UNIVERSITE DE STRASBOURG, priority 2011, published 2014)

Legend:
[1] = tested on: IR nGRE genes CCND1, PRKCB, FSTL1; details: mouse, in vivo
Description: (§1) Gene transcripts in epidermis of WT and GRdim mutant mice topically treated as indicated for 6 hours are analysed by Q-RT-PCR.
(§2) Note that epidermis was treated as indicated with TPA, to activate NFκB and AP1 factors.

[2] = tested on: IR0 and IR2 nGRE containing genes; test: Dex with RU co-administration, expression of IR0 and IR2 genes in epidermis, intestinal epithelium and liver; type: in vivo, mouse; details: Dex-treated mice, in all cases
Description: Mice. For topical treatment, 1 nmole (nm)/cm^2 MC903, at-RA or TPA; 6 nm/cm^2 FA, Dex or RU24858; and 90 nm/cm^2 RU486 were used. For systemic use, 100 ng/kg body weight active Vit D3, 8 mg/kg Dex and 64 mg/kg RU486 was intraperitoneally injected. GRdim mice were from the European Mouse Mutant Archives (EM:02123). Breeding, maintenance and experimental manipulation of mice were approved by the Animal Care and Use Committee of the IGBMC.

[3] = tested on: GPX3 (glutathione peroxidase 3) gene, (+)GRE; test: GPX3 transcript levels in mouse ear epidermis after topical treatment (Q-RT-PCR); type: in vivo; details: WT mice, ears, topical, FIG. 10
Text: (§3) Mice. […] Real time PCR. Total RNA was reverse transcribed using hexamers, followed by Q-PCR, as reported (Li et al., 2005). The GC agonist fluocinolone acetonide (FA) was applied to ears of mice concomitantly treated with the “low-calcemic” Vitamin D3 (VitD3) analog MC903 (Calcipotriol; hereafter called MC) to trigger TSLP expression (Li et al., 2006). […] As expected, the expression of the GC-inducible GPX3 (glutathione peroxidase 3) gene which harbours a (+)GRE (Tuckermann et al., 1999) was enhanced by FA (FIG. 10) and inhibited by RU co-treatment, while FA or RU had no effect on MC-dependent expression of the CYP24A1 gene (a VitD3 target) (FIG. 10).

[4] = tested on: Cox2 gene (NFκB and AP1 binding sites); test: Q-RT-PCR of Cox2 in epidermis of WT and GRdim mice topically treated 6 hours (TPA-activated); details: mouse, in vivo
Description: as §1, §2

[5] = tested on: TSLP; test: TSLP transcript levels in mouse ear epidermis after topical treatment (Q-RT-PCR); type: in vivo
Text: Mice. […] Real time PCR. Total RNA was reverse transcribed using hexamers, followed by Q-PCR, as reported (Li et al., 2005). The GC agonist fluocinolone acetonide (FA) was applied to ears of mice concomitantly treated with the “low-calcemic” Vitamin D3 (VitD3) analog MC903 (Calcipotriol; hereafter called MC) to trigger TSLP expression (Li et al., 2006). […] As expected, the expression of the GC-inducible GPX3 (glutathione peroxidase 3) gene which harbours a (+)GRE (Tuckermann et al., 1999) was enhanced by FA (FIG. 10) and inhibited by RU co-treatment, while FA or RU had no effect on MC-dependent expression of the CYP24A1 gene (a VitD3 target) (FIG. 10). […] Although the basal TSLP level was similar in vehicle-treated WT and GR^ep−/− mice, FA blocked MC-induced TSLP expression in WT, but not in GR^ep−/− mice (not shown).

[6] = tested on: CYP24A1 gene (a VitD3 target); test: CYP24A1 transcript levels in mouse ear epidermis after topical treatment (Q-RT-PCR); type: in vivo; details: mouse ears, FIG. 10
Text: as §3

[7] = tested on: IR nGRE (pGL3(VDRE) IR1 nGRE luciferase reporter); test: Luciferase reporter assay in A549 cells, pGL3(VDRE) IR nGRE plasmids; type: cell-based, human; details: pGL3(VDRE) IR1 nGRE
Description: Luciferase reporter assay. A549 cells seeded on 24-well tissue culture plates overnight at 70% confluency were transfected with 100 ng pCMV β galactosidase, 200 ng pGL3 reporter plasmids and wherever indicated, with 600 ng pSG5 hVDR plasmid (Green et al., 1988) into each well and maintained in medium containing charcoal treated FCS. 24 hours post-transfection, medium was changed and different compounds were added to it for 6 hours. […] Luciferase assay was carried out as instructed (Promega). Normalized values are reported as the mean±SEM; each value originates from at least three individual transfections with assays performed in duplicate.
To investigate whether additional DNA elements could be required to generate a repressing activity, the TSLP IR1 nGRE was inserted upstream of an enhancerless SV40 early promoter located 5′ to the luciferase coding sequence of pGL3 vector, A VDRE separated from the IR1 nGRE by a 314 bp-long DNA segment devoid of any known transregulator binding site (not shown) was inserted to generate a luciferase-expressing reporter plasmid (pGL3(VDRE) IR1 nGRE, FIG. 4), which was transfected into A549 cells, followed by addition of VitD3 and/or FA.
To investigate whether the 1 bp spacer between the inverted repeated motifs of TSLP IR1 nGRE was critical for its repressing function, pGL3-based luciferase plasmids containing the VDRE and TSLP nGRE motifs spaced by 0 to 5 bases (IR0 to IR5 nGREs) were transfected into A549 cells.

[8] = tested on: (+)GRE-containing GPX3 gene; test: GPX3 expression in mouse epidermis after topical RU24858; type: in vivo
Text: (§4) Real time PCR. Total RNA was reverse transcribed using hexamers, followed by Q-PCR, as reported (Li et al., 2005).
(§5) The “activity profile” of RU24858 was also investigated in vivo.

[9] = target: T1, GR (Homo sapiens, UniProt P04150); details: cited from earlier work
T1 sequence (P04150 1-777): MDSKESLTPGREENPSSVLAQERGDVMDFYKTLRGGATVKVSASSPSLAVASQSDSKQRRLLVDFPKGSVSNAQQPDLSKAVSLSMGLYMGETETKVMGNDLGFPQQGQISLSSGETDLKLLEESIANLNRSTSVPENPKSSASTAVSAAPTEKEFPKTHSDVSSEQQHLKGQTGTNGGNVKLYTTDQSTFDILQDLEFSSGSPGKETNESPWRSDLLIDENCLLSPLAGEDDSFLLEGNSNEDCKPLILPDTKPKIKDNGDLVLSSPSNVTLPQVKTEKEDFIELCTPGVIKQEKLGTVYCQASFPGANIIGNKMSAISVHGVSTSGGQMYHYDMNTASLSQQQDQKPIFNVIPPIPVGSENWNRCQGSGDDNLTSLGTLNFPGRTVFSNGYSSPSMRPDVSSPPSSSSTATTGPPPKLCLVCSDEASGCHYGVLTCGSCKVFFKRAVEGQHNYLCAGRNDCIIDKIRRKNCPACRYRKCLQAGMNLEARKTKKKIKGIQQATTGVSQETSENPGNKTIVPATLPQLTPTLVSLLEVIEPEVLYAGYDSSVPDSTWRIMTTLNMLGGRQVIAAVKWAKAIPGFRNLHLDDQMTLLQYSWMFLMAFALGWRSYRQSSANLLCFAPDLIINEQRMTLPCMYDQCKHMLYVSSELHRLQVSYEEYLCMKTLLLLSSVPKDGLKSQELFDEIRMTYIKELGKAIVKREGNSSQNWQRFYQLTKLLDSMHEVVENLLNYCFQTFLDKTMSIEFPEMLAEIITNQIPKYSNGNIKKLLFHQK

[10] = target: T2, repressing complex tethered to NFκB (Homo sapiens, UniProt P04150); test: ChIP of repressing complex tethered to NFκB on PGL4-NFκB vector in A549 cells; type: cell-based
T2 construct: GR-expressing cells are in vitro cultured cells, preferably human lung epithelial carcinoma cells A549; endogenous in cells; host or cells: A549 (CCL-185, ATCC)
T2 sequence (P04150 1-777): T1 sequence (P04150 1-777)
Description: For ChIP assays to test GR and cofactor binding to the nGRE, +GRE or NFκB region of various luciferase reporter plasmids, ˜60% confluent A549 cells in 100 mm TC dish were transfected with 2 μg of respective plasmids using fugene 6 reagent (Roche) and maintained in charcoal treated FCS containing medium. 44 hours post-transfection, 500 nM FA or Dex or RU24858 and/or 5 μM RU486, 5 ng/ml IL-1β (final conc.) was added to the medium for 2 hours, followed by formaldehyde treatment and processing as described above.

[11] = tested on: IR0, IR1 and IR2 nGRE-containing genes; test: Q-RT-PCR of IR nGRE-containing genes in WT mouse epidermis or liver after Dexamethasone or RU24858 for 18 hours; details: in vivo, FIG. 15B, compared with Dex
Description: (§6) A549 cells transfected with PGL4-NFκB (NFκBluc plasmid) of SEQ ID NO:56 and PGL4-AP1 (AP1luc plasmid) of SEQ ID NO:55 were treated as indicated for 6 hours, followed by luciferase assay. “BAY”=NFκB-specific inhibitor BAY 11-7082 and “JNK inhibit”=JNK inhibitor II). • B) Q-RT-PCR of gene transcripts from WT dorsal epidermis topically-treated with Dexamethasone or RU24858 for 18 hours (left panel) and from liver of WT mice IP-injected with Dexamethasone or RU24858 for 18 hours (right panel).
as §4, §5

[12] = tested on: genes of which the skin expression was enhanced by topical TPA treatment; test: Down-regulation of TPA-enhanced genes in mouse skin (NFκB-mediated tethered transrepression); type: in vivo; details: compared with Dex
Text: as §5

[13] = tested on: AP1-driven transcription (PGL4-AP1 vector); test: Luciferase assay in IL-1β-activated A549 cells transfected with PGL4-AP1; type: cell-based, human; details: 6 hours, FIG. 15A right panel
Description: as §6
(§7) Luciferase reporter assay. A549 cells seeded on 24-well tissue culture plates overnight at 70% confluency were transfected with 100 ng pCMV β galactosidase, 200 ng pGL3 reporter plasmids and wherever indicated, with 600 ng pSG5 hVDR plasmid (Green et al., 1988) into each well and maintained in medium containing charcoal treated FCS. 24 hours post-transfection, medium was changed and different compounds were added to it for 6 hours. Final concentrations of the compounds are: FA, 500 nM; Dex or RU24858, 300 nM or 500 nM (wherever 300 nM Dex or RU was used, it is indicated in the figure, in all other cases, 500 nM concentration was used); active vitamin D3, 1 μM; IL-1β, 5 ng/ml; BAY 11-7082, 5 μM, JNK inhibitor II, 25 μM. Luciferase assay was carried out as instructed (Promega). […]

[14] = target: T3, GR complexes on (+)GRE and nGRE regions (Mus musculus, UniProt P06537); test: ChIP in vivo after RU24858 treatment
T3 construct: from tissue; host or cells: mouse epidermis, pancreas, liver
Text: as §5

[15] = tested on: (+)GRE-containing GGT1 and ERP27 genes; test: GGT1 and ERP27 expression in mouse liver after RU24858; type: in vivo
Text: as §4, §5

[16] = target: T1, GR; details: cited from earlier work; remark: listed apart in the source
[17] = tested on: NFκB-driven transcription (PGL4-NFκB vector); test: Luciferase assay in IL-1β-activated A549 cells transfected with PGL4-NFκB; type: cell-based, human; details: 6 hours, FIG. 15A left panel
Description: as §6, §7

[18] = tested on: (+)GRE (PGL3(VDRE) (+)GRE luciferase reporter); test: Luciferase reporter assay in A549 cells, PGL3(VDRE) (+)GRE vector; type: cell-based, human; details: compared with Dex
Description: as §7, with “(Promega). Normalized values are reported as the mean±SEM; each value originates from at least three individual transfections with assays performed in duplicate.” for “(Promega).”

In the case of `CC#C[C@]1(O)CC[C@H]2[C@@H]3CCC4=CC(=O)CCC4=C3[C@@H](c3ccc(N(C)C)cc3)C[C@@]21C` [RU486, mifepristone], the “effect of Dex treatment on IR nGRE-mediated transrepression upon excess RU co-treatment” value [1] is reported as “reverted”, the “GC-induced repression of IR0 and IR2 genes upon co-administration of RU” value [2] is reported as “relieved” and the “FA-enhanced GPX3 expression upon RU co-treatment” value [3] is reported as “inhibited”. For the same molecule, the “effect of RU on NFκB/AP1-mediated tethered transrepression” value [4] was “little effect”, the “FA block of MC-induced TSLP RNA upon RU co-treatment” value ([5]; WT mice, ears, topical) was “restored” and the “FA-induced inhibition of basal TSLP RNA level upon co-application of RU486” value ([5]; WT mice, ears, topical) was “relieved”. The “effect on MC-dependent expression of the CYP24A1 gene” value [6] was “no effect” and the “FA-induced decrease of luciferase expression (IR1 nGRE) upon RU addition” value [7] was “prevented”.
With `C=C1/C(=C\C=C2/CCC[C@]3(C)[C@@H]([C@H](C)/C=C/[C@@H](O)C4CC4)CC[C@@H]23)C[C@@H](O)C[C@@H]1O` [MC903, Calcipotriol] the “MC-induced TSLP expression in GRep-/- compared with WT mice” value ([5]; GRep-/- vs WT mice) was “more efficient” and the “TSLP RNA level” value ([5]; WT mice, ears, topical MC903) was “increase”.
In the case of `C[C@@H]1C[C@H]2[C@@H]3CCC4=CC(=O)C=C[C@]4(C)[C@@]3(F)[C@@H](O)C[C@]2(C)[C@H]1C(=O)CC#N` [RU24858], the “GC-dependent expression of the (+)GRE-containing GPX3 gene” value [8] is given as “did not activate”, the “dissociated profile (tethered indirect transrepression vs direct transactivation) in vitro” value [9] is given as “exhibit the expected dissociated profile in vitro” and the “recruiting a repressing complex tethered to NFκB bound to its cognate element” value [10] is given as “as efficient as Dex”. For the same molecule, the “transrepression of IR0 nGRE gene CCND1” value [11] was “as efficient as Dex”, the “transrepression of IR1 nGRE gene CYP26A1” value [11] was “as efficient as Dex” and the “transrepression of IR1 nGRE gene K14” value [11] was “as efficient as Dex”. The “transrepression of IR1 nGRE gene PRKCB” value [11] was “as efficient as Dex”, the “transrepression of IR1 nGRE gene TSLP” value [11] was “as efficient as Dex” and the “transrepression of IR2 nGRE gene DPAGT1” value [11] was “as efficient as Dex”. The “down-regulating, through NFκB-mediated tethered transrepression, genes enhanced by topical TPA” value [12] was “as efficient as Dex”, the “repression of IL1β-induced activation of transcription by AP1” value [13] was “almost as efficient as Dex” and the “GR-SMRT/NCoR repressing complexes on nGRE regions” value [14] was “recruitment of GR-SMRT/NCoR repressing complexes”. For the same molecule, the “assembly of an activating complex on (+)GRE of GPX3, GGT1 and ERP27” value [14] was “did not induce assembly of an activating complex”, the “GC-dependent expression of the ERP27 gene” value [15] was “did not activate” and the “GC-dependent expression of the GGT1 gene” value [15] was “did not activate”. The “dissociation upon administration in vivo” value [16] was “failed to confirm this dissociation”, the “repression of IL1β-induced activation of transcription by NFκB” value [17] was “almost as efficient as Dex” and the “inducing transactivation of (+)GRE pGL3 luciferase plasmid” value [18] was “much less efficient than Dex”.
